What was measured:
[1] = Oral bioavailability in dogs (plasma AUC method, i.v. versus p.o.); format: in vivo; conditions: dog, 10 umol/kg, plasma level measurements, 1 µmol·kg^-1 i.v. and 10 µmol·kg^-1 p.o.
Experimental: Dose-effect studies in rat following subcutaneous versus oral administration further support a high availability of the compound at the receptor after oral administration.
Method: Assessment for oral bioavailability (systemic availability) was based on the plasma area under the curve (AUC) method. An aqueous saline solution of compound of the invention was administered intravenously (i.v.) and orally (p.o.) to the animals and concentrations of the compound in plasma measured at numerous timepoints. The doses administered were 1 µmol·kg^-1 and 10 µmol·kg^-1 for intravenous and oral administration, respectively. AUC was calculated according to the trapezoidal rule. Determination of the test compound in plasma was accomplished by an HPLC method which incorporated electrochemical detection.

[2] = target: T1, 5-HT1A receptors (Rattus norvegicus, UniProt P19327); test: 5HT1A binding assay (3H-8-OH-DPAT, rat cerebral cortex + hippocampus homogenate); conditions: rat brain, 37°C, 10 minutes
T1 construct: Cerebral cortex + hippocampus from each rat was dissected and homogenized; from tissue; host or cells: rat cerebral cortex + hippocampus homogenate
T1 sequence (P19327 1-422): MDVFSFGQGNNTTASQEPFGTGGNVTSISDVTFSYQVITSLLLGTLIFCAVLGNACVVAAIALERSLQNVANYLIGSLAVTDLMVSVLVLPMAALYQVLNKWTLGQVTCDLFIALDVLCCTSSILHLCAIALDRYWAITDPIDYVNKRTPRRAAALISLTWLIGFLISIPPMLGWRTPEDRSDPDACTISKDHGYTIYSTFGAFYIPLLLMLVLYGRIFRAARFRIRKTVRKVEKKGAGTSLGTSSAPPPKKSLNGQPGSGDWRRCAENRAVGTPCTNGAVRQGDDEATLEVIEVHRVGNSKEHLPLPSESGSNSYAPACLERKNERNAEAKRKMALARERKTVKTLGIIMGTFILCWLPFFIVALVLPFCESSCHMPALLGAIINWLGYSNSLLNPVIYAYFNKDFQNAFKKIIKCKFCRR
Experimental: In order to evaluate the 5-HT-receptor stimulating effect and selectivity, the affinity for various receptors in rat brain were measured in vitro using receptor assay. The stereospecific (R)-enantiomeric compound of the invention (R)-3-(N-isopropyl-N-n-propylamino)-5-(N-isopropyl)carbamoylchroman has Ki 8.6 (nM) and the racemic compound 3-(N-isopropyl-N-n-propylamino)-5-(N-isopropyl)-carbamoylchroman has Ki 24 (nM). The Ki value for the (S)-enantiomer exceeded 1000 nM.
Method: 5HT1A binding assay. Cerebral cortex + hippocampus from each rat was dissected and homogenized in 15 ml ice-cold 50 mM Tris-HCl buffer 4.0 mM CaCl2 and 5.7 mM ascorbic acid, pH 7.5 with an Ultra-Turrax (Janke & Kunkel, Staufen, FRG) for ten s. After centrifugation for 12.5 min at 17,000 rpm (39,800 x g in a Beckman centrifuge with a chilled JA-17 rotor (Beckman, Palo Alto, CA, USA), the pellets were resuspended in the same buffer and homogenization and centrifugation repeated. To each pellet 5 ml ice-cold 0.32 M sucrose were added and homogenized for 5 sec. These samples were kept frozen at -70°C. When used they were diluted with the buffer to 8 mg tissue/ml and homogenized for 10 sec. The tissue homogenates were incubated for ten minutes at 37°C and then supplied with 10 µM pargyline followed by reincubation for 10 minutes.
The binding assay followed that described by Peroutka, J. Neurochem. 47, 529-540, (1986). The incubation mixture (2 ml) contained ^3H-8-OH-DPAT (0.25 to 8 nM), 5 mg/ml tissue homogenate in 50 mM Tris-HCl buffer containing 4.0 mM CaCl2 and 5.7 mM ascorbic acid, pH 7.5. Six different concentrations of ^3H-8-OH-DPAT were analyzed. Binding experiments were started by the addition of tissue homogenate and followed by incubation at 37°C for 10 minutes. […] The filters were washed twice with 5 ml ice-cold 50mM Tris-HCl buffer, pH 7.5, and counted with 5 ml Ready-solv HP (Beckman) in a Beckman LS 3801 scintillation counter. Non-specific binding was measured by the addition of 10 µM 5-HT to the reaction mixture. […]

[3] = tested on: synthesis rate of 5-HT; test: Synthesis of 5-HT: accumulation of 5-HTP in rat brain after NSD 1015; format: in vivo; conditions: compound given 30 min before NSD 1015
Experimental: Method: The rate of synthesis of 5-HT in the rat streatum was measured as the accumulation of 5-HTP during 30 min after inhibition of aromatic L-amino acid decarboxylase by NSD 1015 (decarboxylase inhibitor, 100 mg/kg i.p.). The test compound was administered 30 min before the NSD 1015. The regions of the brain to be examined were dissected, frozen and stored.
The levels of 5-HTP (5-hydroxytryptophan) was determined by use of high performance liquid chromatography (HPLC) with electrochemical detection according to the method of Magnusson, Nilsson and Westerlund (1980). The mobile phase was 0.1 M phosphate buffer (pH 2.5):methanol:acetonitrile-89:9:2 v/v, containing 1mM octylsulphate. The frozen samples were weighed and homogenized in 0,1 M perchloric acid, containing […] sodium bisulphite, 1 mM ethylene diamine tetraacetic acid (EDTA) and epinine as an internal standard. The supernatants were injected directly onto a Supelcosil C18 (3 µM) column, connected to a detector (ESA Coulochem 5100A), set to 0.05/0.40 V.

[4] = Temperature effects: body temperature in rats; format: in vivo
Experimental: Method: In each test, thirty rats, weighing approx 250 g, housed in 6 cages of 5 rats, are used. The rats have free access to food and water. Before the start of testing, they are numbered and left undisturbed for at last 1 hour. Before the administration of the compound, the body temperature of each rat is measured using a YSI 2100 tele-thermometer. The thermometer probe is inserted 10 cm into the rectum and left in pace for thirty seconds. The drug is then administered either subcutaneously or orally. In each experiment vehicle and 4 doses of drug are tested. One rat in each cage receives each treatment. The order of treatment is rotated since disturbance to the cage increases the activity of the rats, and thereby their body temperature. Thirty minutes after drug administration the rats' body temperature are measured again. The procedure is repeated 60, 90 and 120 minutes after drug administration. The resultant data on body temperature is subjected to analysis of variance. A significant group by time interaction is taken as an indication of drug effect. To obtain the minimum effective dose, the mean temperature for each of the drug treated groups are compared with that of the vehicle group at each time point using Dunnett's t-test with a level of significance of p<0.02. […]

| SMILES | bioavailability [1] [%] | Ki [2] [nM] | synthesis rate of 5-HT, measured as 5-HTP level in rat brain ([3]; 0.2 mg/kg oral administration) | synthesis rate of 5-HT, measured as 5-HTP level in rat brain ([3]; 0.1trig/kg subcutaneous administration) | body temperature ([4]; 1 mg/kg oral administration) | body temperature ([4]; subcutaneous administration of 0.3 mg/kg) |
| --- | --- | --- | --- | --- | --- | --- |
| CCCN(C(C)C)C1COc2cccc(C(=O)NC(C)C)c2C1 (racemic) [racemate, 3-(N-Isopropyl-N-n-propylamino)-5-(N-isopropyl)carbamoyl chroman] | 21 | 24 |  |  |  |  |
| CCCN(C(C)C)[C@H]1COc2cccc(C(=O)NC(C)C)c2C1 [(R)-enantiomer, (R)-3-(N-Isopropyl-N-n-propylamino)-5-(N-isopropyl)carbamoylchroman] | 17 | 8.6 | significant decrease | significant decrease | significant temperature decrease | significant temperature decrease |
| CCCN(C(C)C)[C@@H]1COc2cccc(C(=O)NC(C)C)c2C1 [(S)-enantiomer, (S)-enantiomer of 3-(N-isopropyl-N-n-propylamino)-5-(N-isopropyl)carbamoylchroman] |  | > 1000 |  |  |  |  |

— patent EP0607274B1, “3-(N-ISOPROPYL-N-n-PROPYLAMINO)-5-(N-ISOPROPYL)CARBAMOYLCHROMAN” (priority 1991, dated 1993)
